The source of these data is patent US20250346635A1, “VASCULAR ENDOTHELIAL GROWTH FACTOR RECEPTOR-1 (VEGFR-1) INHIBITORS FOR PROMOTING MYELINATION AND NEUROPROTECTION” (ICM (INSTITUT DU CERVEAU ET DE LA MOELLE ÉPINIÉRE), priority 2022, published 2025).

Experiment [1] deals with organotypic cerebellar slices. The experiment is described as follows: Myelination in organotypic cerebellar slices from P7 mice (MBP/CaBP). It counts as cell-based. The settings on record: 3 days ex vivo, slices from P7 mouse. The procedure:
(§1) Organotypic cerebellar slices were generated from brains of postnatal day 0 (P0) and P7 mouse pups. Briefly, cerebella were dissected and cut into 350 μm slices. Cerebellar slices from the vermis were collected and then cultured on Millicell cell culture inserts (Millipore) in 6-wellplates in a medium composed of 50% Basal Medium Eagle, 25% Hank solution (HBSS), 25% inactivated horse serum, 5 mg/ml high-glucose, 1 mM L-glutamine, 0.2% penicillin-streptomycin. Slices were incubated at 37° C. (5% CO2) for 10 days (slices from P0) or 3 days (slices from P7). The culture medium was replaced every 2-3 days. For immunohistochemistry, slices were fixed in 4% paraformaldehyde and immunostained for CaBP and MBP. Briefly, slices were incubated in 4% BSA/0.2% triton for 1 hour and next incubated overnight with the following primary antibodies: rabbit anti-CaBP (dilution: 1/10000) and rat anti-MBP (dilution: 1/250). After several washes in PBS 0.1M, slices were then incubated with the secondary antibodies (anti-rabbit alexaFluor555, anti-mouse alexaFluor488) and Dapi for 2 hours and finally washed in PBS 0.1M and mounted in Fluoromount medium. Flurorescence imaging were performed with a confocal microscopy NIKON A1R-HD25.
(§2) Oligodendrocytes differentiation was assessed by analyzing the fold increase of MBP^+Sox10^+ cells in treated conditions relative to the basal condition. The percentage of MBP^+Sox10^+ cells were quantified after treatments with pan-VEGFRs and selective VEGFR-1 antagonists and compared with the basal medium. Results are shown as differentiation fold increase relative to the basal condition. Myelination was assessed using organotypic cerebellar slices generated from P7 mice cerebellum and the effect of VEGFRs sub-types antagonists on myelination was analyzed after immunostaining for Sox10 for oligodendroglia, MBP for myelin (white) and calbindin (gray). Slices were cultured in basal medium (control condition), or in the basal medium supplemented either with 9cis-RA (used as a positive control of myelination) or with VEGFR-1 selective and specific inhibitor (SU14813 and ZM306416), respectively. All compounds were used at 500 nM, except ZM306416 that has been used at 30 μM. The myelination index for each condition was quantified as the percentage of MBP+CaBP+ axons over the total CaBP+ axonal surface area and normalized relatively to basal condition.

The next experiment deals with Purkinje cells. Kind of experiment: Neuroprotection of Purkinje cells in organotypic cerebellar slices (CaBP immunostaining). It counts as cell-based. The settings on record: 10 days in vitro, slices from P0 mouse. The procedure: as §1
The neuroprotective effects of the drugs were assessed by evaluating the density of Purkinje cells in basal medium alone and in basal medium supplemented with VEGFRs inhibitors. Organotypic cerebellar slices obtained from P0 mouse (as described above) were cultured for 10 days in vitro in basal medium alone, or in the basal medium supplemented either with pan-VEGFRs inhibitors, VEGFR-2/3 specific inhibitor (Telatinib) or with VEGFR-1 selective and specific inhibitors (SU14813 and ZM306416), respectively. All compounds were used at 500 nM, except ZM306416 that was used at 30 μM. After treatments, slices were immunostained for CaBP, as described above.

Experiment [2] relates to rat primary OPC cultures. The experiment is described as follows: OPC differentiation in rat primary OPC cultures (MBP+Sox10+ cells). It counts as cell-based. The settings on record: 500 nM, 5 days in vitro. The procedure: Rat primary OPC cultures were obtained from neonatal pups (P0-P1). Brains were dissected, cerebellar cortices and meninges were removed. Brain tissues were next mechanically and enzymatically dissociated. After filtration and centrifugation, mixed cells of astrocytes, microglia and OPCs was cultured in DMEM medium on polyornithine-coated flasks. After 13-14 days of culture, microglial cells were removed by shaking during 2 h. OPCs were next collected after 18 h of shaking, followed by differential adhesion. OPCs purification was validated by immunostaining of Olig2 and Sox10. To induce differentiation, cells were kept in proliferation medium (DMEM-F12, 1% PS, FGF, PDGF, 1% laminin, Biotin, 2% B27, N1 mix) for 24 h and then switched to a differentiation medium with the same composition but deprived of FGF and PDGF. Cells were incubated at 37° C. (5% CO2) for 5 days and the medium was partially replaced every 2 days. Cells were then fixed in 2% paraformaldehyde and immunostained with Sox10 and MBP. Cells were incubated for 2 hours with primary antibodies Sox10 (Goat 1/100) and MBP (Rabbit 1/500) diluted in 4% BSA in PBS 0.1M/0.1% Triton. After washes, cells were then incubated with the secondary antibody (anti-Goat Alexa647, anti-Rabbit Alexa488 and Dapi) for 1 hour and finally washed in PBS 0.1M and mounted in Fluoromount medium. […]
as §2, with “Results are shown as differentiation fold increase relative to the basal condition.” left out, “Slices were cultured in basal medium (control condition), or in the basal medium supplemented either with 9cis-RA (used as a positive control of myelination) or with VEGFR-1 selective and specific inhibitor (SU14813 and ZM306416), respectively. All compounds were used at 500 nM, except ZM306416 that has been used at 30 μM.” left out

For experiment [3], the system named is rat primary OPC cultures. The experiment is described as follows: OPC differentiation (Olig2+MBP+ cells/Olig2+ cells) after VEGFR-1 shRNA or blocking peptide. It counts as cell-based. Particulars: blocking peptide vs control (basal medium), 5 days in differentiation medium. How it is done: Rat primary OPC cultures were obtained from neonatal pups (P0-P1). Brains were dissected, cerebellar cortices and meninges were removed. Brain tissues were next mechanically and enzymatically dissociated. After filtration and centrifugation, mixed cells of astrocytes, microglia and OPCs was cultured in DMEM medium on polyornithine-coated flasks. After 13-14 days of culture, microglial cells were removed by shaking during 2 h. OPCs were next collected after 18 h of shaking, followed by differential adhesion. OPCs purification was validated by immunostaining of Olig2 and Sox10. To induce differentiation, cells were kept in proliferation medium (DMEM-F12, 1% PS, FGF, PDGF, 1% laminin, Biotin, 2% B27, N1 mix) for 24 h and then switched to a differentiation medium with the same composition but deprived of FGF and PDGF. Cells were incubated at 37° C. […]
For RT-qPCR, transduction at MOI 8 and MOI 2 were used. […] For immunocytochemistry, transfection with MOI 4 was used and labelling with Olig2 and MBP to quantify Olig2+MBP+ differentiated oligodendrocytes.
Our data confirmed efficient lentivirus transduction with multiplicity of infection 4 (MOI 4) and knock-down of VEGFR-1 (FIG. 5A). […] To do so, we quantified Olig2+MBP+ differentiated oligodendrocytes over the total Olig2+ oligodendroglial cells (ratio of Olig2+MBP+ cells/Olig2+ cells) for each condition.

Experiment [4] deals with organotypic cerebellar slices. Kind of experiment: Myelination in organotypic cerebellar slices treated with VEGFR-1 blocking peptide. Particulars: 10 μM, from 5 to 10 days in vitro. It counts as cell-based, mouse. The procedure:
as §1
Mouse cerebellar slices were prepared as previously described. […]

On to `Cc1[nH]c(C=C2C(=O)Nc3ccc(F)cc32)c(C)c1C(=O)NC[C@H](O)CN1CCOCC1` [SU14813], for which, in experiment [1] (500 nM), the “MBP+ mature oligodendrocytes in organotypic cerebellar slices” value (“MBP+ mature oligodendrocytes” below) was “numerous MBP^+ mature oligodendrocytes”; the “myelination index (density of myelinated axons) vs basal, 9 cis-RA, VEGFR-2/3 inhibitor and pan-VEGFR inhibitors” value is “density of myelinated axons was higher”. Moreover, in the experiment on Purkinje cells (500 nM), the “neuroprotection / number of Purkinje cells relative to basal condition” value was “enhance neuroprotection of Purkinje cells”. For the same compound, the “number of SOX10+MBP+ differentiated oligodendrocytes relative to basal condition” value with rat primary OPC cultures [2] is listed as “significant increase”.

Take `COc1cc2ncnc(Nc3ccc(Cl)cc3F)c2cc1OC` [ZM306416]: in experiment [1] (30 μM), the “MBP+ mature oligodendrocytes” value was “numerous MBP^+ mature oligodendrocytes”; the “myelination index (density of myelinated axons) vs basal, 9 cis-RA, VEGFR-2/3 inhibitor and pan-VEGFR inhibitors” value is reported as “density of myelinated axons was higher”. For the same compound, the “neuroprotection / number of Purkinje cells relative to basal condition” value in the experiment with Purkinje cells (30 μM) is listed as “enhance neuroprotection of Purkinje cells”.

On to `CNC(=O)c1cccc2cc(Oc3ccnc4cc(OCC5(N)CC5)c(OC)cc34)ccc12` [Lucitanib], for which the “MBP+ mature oligodendrocytes” value in experiment [1] (500 nM) is “numerous MBP^+ mature oligodendrocytes”. For the same compound, the “neuroprotection / number of Purkinje cells relative to basal condition” value with Purkinje cells (500 nM) was “higher number of Purkinje cells with respect to the basal condition”. Also, the “number of SOX10+MBP+ differentiated oligodendrocytes relative to basal condition” value in the experiment with rat primary OPC cultures [2] was “significant increase”.

In the case of `CNC(=O)c1cc(COc2nnc(Nc3ccc(Cl)cc3)c3ccoc23)ccn1` [Telatinib], in the experiment with Purkinje cells (500 nM), the “neuroprotection / number of Purkinje cells relative to basal condition” value is listed as “but not of VEGFR-2/3 (Telatinib), enhance neuroprotection”. Moreover, the “number of SOX10+MBP+ differentiated oligodendrocytes relative to basal condition” value with rat primary OPC cultures [2] is listed as “significant increase”.

Take GNQWFI [VEGFR-1-blocking peptide]: the “fold increase in the number of Olig2+MBP+ cells” value in the experiment on rat primary OPC cultures [3] is reported as 1.18±0.19 fold. Besides, the “ex-vivo myelination (MBP+CaBP+ myelinated axons)” value in experiment [4] was “enhances ex-vivo myelination”.
